1 compound from patent publication US10557124B2, “Compositions and methods for obtaining stem cell derived lung tissue, and related uses thereof” (The Regents of the University of Michigan, priority 2015, dated 2020) can be followed below.

The structures appear in SMILES notation.

The assay concerns foregut spheroids (NOG+SB+FGF4+Ch). The assay is described as follows: qRT-PCR of foregut spheroids generated with addition of HH agonist SAG. In kind it is cell-based, human. The following applies: SAG added to NOG+SB+FGF4+Ch spheres; compared to spheres without SAG. Here is the method:
Based on the observations that stimulating HH and inhibiting FGF signaling strongly enhances NKX2.1 expression while reducing PAX8 expression (FIG. 5), multiple conditions of HH activation and FGF inhibition to induce NKX2.1^HI/PAX8^LO foregut spheroids (NOG/SB/F/Ch) were tested (FIG. 8). […] Therefore, several conditions were also tested that stimulated HH signaling using SAG only, without FGF inhibition. […] Additionally, nuclear NKX2.1 protein expression was found in ECAD+ epithelium which co-expressed endoderm epithelial markers FOXA2 and SOX2 (FIG. 10B, C, FIG. 11). […] Thus, concomitant down-regulation of SOX2 and increased NKX2.1 observed in SAG treated foregut spheroids is consistent with early transcriptional changes that occur during lung specification in mice.
After differentiation into definitive endoderm, cells were incubated in foregut media with NOG, SB, 500 ng/mL FGF4 (R&D Systems), and 2 μM CHIR99021 (Chiron, Stemgent) for 4-6 days. After 4 days with treatment of growth factors, three-dimensional floating spheroids were present in the culture. Three-dimensional spheroids were transferred into Matrigel to support 3D growth as previously described (see, e.g., McCracken K W, et al., Nature Protocols; 2011 Nov. 10; 6(12):1920-8). Briefly, spheroids were embedded in a droplet of Matrigel (BD Bioscience #356237) in one well of a 24 well plate, and incubated at room temperature for 10 minutes. After the Matrigel solidified, foregut media with 1% Fetal bovine serum (FBS, CAT#: 16000-044, Life Technologies) or other growth factors and small molecules were overlaid and replaced every 4 days. Organoids were transferred into new Matrigel droplets every 10 to 15 days.
RNA was extracted from monolayers, spheroids, and organoids using a MagMAX-96 Total RNA Isolation Kit (Life Technologies) and MAG Max Express (Applied Biosystems). RNA quantity and quality were determined spectrophotometrically, using a Nano Drop 2000 (Thermoscientific). Reverse transcription was conducted using the SuperScript VILO kit (Invitrogen), according to manufacturer's protocol. Finally, qRT-PCR was carried out using Quantitect Sybr Green MasterMix (Qiagen) on a Step One Plus Real-Time PCR system (Life Technologies).
(Real-time PCR tracks product formation cycle by cycle.)

As for `CNC1CCC(N(Cc2cccc(-c3ccncc3)c2)C(=O)c2sc3ccccc3c2Cl)CC1` (stereo not drawn) [SAG], the CDX2 transcript result was “reduction”, the HHEX transcript result is “not significantly different”, the NKX2.1 transcript entry was “significant increase” and the PAX8 transcript result was “not significantly different”. Also, the PDX1 transcript result is given as “not significantly different” and the SOX2 transcript result is recorded as “reduction”.
